Values joined by “and” are separate entries in the source; they are usually repeats but may differ in a detail not shown here. Equal entries are not always repeated.
Tested on: 463943-066-T-J2-PDC complex spheroid growth
Assay: Anticancer human tumor 463943-066-T-J2-PDC patient-derived colon adenocarcinoma cell line growth inhibition [Asc]
Conditions: for viability, T/C: stronger effect = lower value
Summary of the method: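 Stromal components (HUVEC and hMSC) are co-assembled with the cancer cells into multicellular spheroids. Drugs are then added singly or paired, at concentrations falling by half-log increments from a clinically achievable maximum, capped at 10 microM without known Cmax.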

[1] = curve of first compound, second compound 0.00949 µM
[2] = curve of first compound, second compound 0.03 µM
[3] = curve of first compound, second compound 0.0949 µM
[4] = curve of first compound, second compound 0.3 µM
[5] = curve of first compound, second compound 0.949 µM
[6] = curve of first compound, second compound 3 µM
[7] = second compound 0.00949 µM, first compound 0.0316 µM
[8] = second compound 0.00949 µM, first compound 0.1 µM
[9] = second compound 0.00949 µM, first compound 0.316 µM
[10] = second compound 0.00949 µM, first compound 1 µM
[11] = second compound 0.03 µM, first compound 0.0316 µM
[12] = second compound 0.03 µM, first compound 0.1 µM
[13] = second compound 0.03 µM, first compound 0.316 µM
[14] = second compound 0.03 µM, first compound 1 µM
[15] = second compound 0.0949 µM, first compound 0.0316 µM
[16] = second compound 0.0949 µM, first compound 0.1 µM
[17] = second compound 0.0949 µM, first compound 0.316 µM
[18] = second compound 0.0949 µM, first compound 1 µM
[19] = second compound 0.3 µM, first compound 0.0316 µM
[20] = second compound 0.3 µM, first compound 0.1 µM
[21] = second compound 0.3 µM, first compound 0.316 µM
[22] = second compound 0.3 µM, first compound 1 µM
[23] = second compound 0.949 µM, first compound 0.0316 µM
[24] = second compound 0.949 µM, first compound 0.1 µM
[25] = second compound 0.949 µM, first compound 0.316 µM
[26] = second compound 0.949 µM, first compound 1 µM
[27] = second compound 3 µM, first compound 0.0316 µM
[28] = second compound 3 µM, first compound 0.1 µM
[29] = second compound 3 µM, first compound 0.316 µM
[30] = second compound 3 µM, first compound 1 µM
[31] = second compound 0.00949 µM, first compound 0.00316 µM
[32] = second compound 0.00949 µM, first compound 0.01 µM
[33] = second compound 0.03 µM, first compound 0.00316 µM
[34] = second compound 0.03 µM, first compound 0.01 µM
[35] = second compound 0.0949 µM, first compound 0.00316 µM
[36] = second compound 0.0949 µM, first compound 0.01 µM
[37] = second compound 0.3 µM, first compound 0.00316 µM
[38] = second compound 0.3 µM, first compound 0.01 µM
[39] = second compound 0.949 µM, first compound 0.00316 µM
[40] = second compound 0.949 µM, first compound 0.01 µM
[41] = second compound 3 µM, first compound 0.00316 µM
[42] = second compound 3 µM, first compound 0.01 µM
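Also: compound exposure lasted 7 days.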
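For viability, T/C in this document: 100% = DMSO vehicle control wells.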

COc1c(OCCCN2CCOCC2)ccc2c3n(c(=NC(=O)c4cnc(N)nc4)nc12)CCN3
viability, T/C (compound 0.00316 µM): 94.5% and 96.1% | viability, T/C (compound 0.01 µM): 90.6% and 82% | viability, T/C (compound 0.0316 µM): 77.9% and 77.5% | viability, T/C (compound 0.1 µM): 65.9% and 65.1% | viability, T/C (compound 0.316 µM): 59% and 58.9% | viability, T/C (compound 1 µM): 41.5% and 44.9% | IC50 (curve of compound): 0.524 µM and 0.659 µM

O=C(c1cc(Cc2n[nH]c(=O)c3ccccc23)ccc1F)N1CCN(C(=O)C2CC2)CC1
viability, T/C (compound 0.0316 µM): 98.1% and 99.9% and 93.3% | viability, T/C (compound 0.1 µM): 98.8% and 91.9% and 78.9% | viability, T/C (compound 0.316 µM): 99.5% and 98.5% and 103% | viability, T/C (compound 1 µM): 96.7% and 97.9% and 108% | viability, T/C (compound 3.16 µM): 103% and 97.2% and 92.4% | viability, T/C (compound 10 µM): 92.1% and 91.5% and 97.2% | IC50 (curve of compound): > 10 µM

C=CC(=O)N1CCN(c2nc(=O)n(-c3c(C)ccnc3C(C)C)c3nc(-c4c(O)cccc4F)c(F)cc23)C(C)C1 (stereo not given) + CCN1C(C(=O)NC23CCC(C(=O)O)(CC2)CC3)C(c2cccc(Cl)c2F)C2(C(=O)Nc3cc(Cl)ccc32)C12CCCCC2
IC50 [1]: > 10 µM | IC50 [2]: > 10 µM | IC50 [3]: > 10 µM | IC50 [4]: > 10 µM | IC50 [5]: > 10 µM | IC50 [6]: > 10 µM | viability, T/C [7]: 94.4% | viability, T/C [8]: 96.5% | viability, T/C [9]: 93% | viability, T/C [10]: 107% | viability, T/C (second compound 0.00949 µM, first compound 3.16 µM): 104% | viability, T/C (second compound 0.00949 µM, first compound 10 µM): 98% | viability, T/C [11]: 108% | viability, T/C [12]: 96.8% | viability, T/C [13]: 99.9% | viability, T/C [14]: 103% | viability, T/C (second compound 0.03 µM, first compound 3.16 µM): 104% | viability, T/C (second compound 0.03 µM, first compound 10 µM): 88.4% | viability, T/C [15]: 92.4% | viability, T/C [16]: 88.6% | viability, T/C [17]: 91% | viability, T/C [18]: 93.2% | viability, T/C (second compound 0.0949 µM, first compound 3.16 µM): 97.3% | viability, T/C (second compound 0.0949 µM, first compound 10 µM): 86.3% | viability, T/C [19]: 84.4% | viability, T/C [20]: 84.8% | viability, T/C [21]: 86.2% | viability, T/C [22]: 85.5% | viability, T/C (second compound 0.3 µM, first compound 3.16 µM): 86.7% | viability, T/C (second compound 0.3 µM, first compound 10 µM): 80.3% | viability, T/C [23]: 76.5% | viability, T/C [24]: 77% | viability, T/C [25]: 74% | viability, T/C [26]: 77% | viability, T/C (second compound 0.949 µM, first compound 3.16 µM): 78.2% | viability, T/C (second compound 0.949 µM, first compound 10 µM): 77% | viability, T/C [27]: 71.7% | viability, T/C [28]: 73.3% | viability, T/C [29]: 75.9% | viability, T/C [30]: 77.6% | viability, T/C (second compound 3 µM, first compound 3.16 µM): 72.5% | viability, T/C (second compound 3 µM, first compound 10 µM): 72.5%

COc1c(OCCCN2CCOCC2)ccc2c3n(c(=NC(=O)c4cnc(N)nc4)nc12)CCN3 + CCN1C(C(=O)NC23CCC(C(=O)O)(CC2)CC3)C(c2cccc(Cl)c2F)C2(C(=O)Nc3cc(Cl)ccc32)C12CCCCC2
IC50 [1]: 0.41 µM | IC50 [2]: 0.271 µM | IC50 [3]: 0.231 µM | IC50 [4]: 0.0711 µM | IC50 [5]: 0.0447 µM | IC50 [6]: 0.0608 µM | viability, T/C [31]: 89.5% | viability, T/C [32]: 82.9% | viability, T/C [7]: 74% | viability, T/C [8]: 69.2% | viability, T/C [9]: 51.2% | viability, T/C [10]: 39.4% | viability, T/C [33]: 95.3% | viability, T/C [34]: 88.5% | viability, T/C [11]: 71.5% | viability, T/C [12]: 61.2% | viability, T/C [13]: 50.3% | viability, T/C [14]: 33.7% | viability, T/C [35]: 87.3% | viability, T/C [36]: 84.1% | viability, T/C [15]: 71.4% | viability, T/C [16]: 59.3% | viability, T/C [17]: 47.4% | viability, T/C [18]: 33.6% | viability, T/C [37]: 73% | viability, T/C [38]: 72.5% | viability, T/C [19]: 61.9% | viability, T/C [20]: 44.4% | viability, T/C [21]: 37.1% | viability, T/C [22]: 32% | viability, T/C [39]: 68.5% | viability, T/C [40]: 62.5% | viability, T/C [23]: 53.4% | viability, T/C [24]: 42.2% | viability, T/C [25]: 35.1% | viability, T/C [26]: 30.4% | viability, T/C [41]: 65.3% | viability, T/C [42]: 64.4% | viability, T/C [27]: 53.7% | viability, T/C [28]: 45.4% | viability, T/C [29]: 39.1% | viability, T/C [30]: 29.8%

CCN1CCN(Cc2ccc(Nc3ncc(F)c(-c4cc(F)c5nc(C)n(C(C)C)c5c4)n3)nc2)CC1 + CCN1C(C(=O)NC23CCC(C(=O)O)(CC2)CC3)C(c2cccc(Cl)c2F)C2(C(=O)Nc3cc(Cl)ccc32)C12CCCCC2
IC50 [1]: > 1 µM | IC50 [2]: > 1 µM | IC50 [3]: > 1 µM | IC50 [4]: > 1 µM | IC50 [5]: > 1 µM | IC50 [6]: > 1 µM | viability, T/C [31]: 99.6% | viability, T/C [32]: 92.3% | viability, T/C [7]: 91.4% | viability, T/C [8]: 96.2% | viability, T/C [9]: 110% | viability, T/C [10]: 113% | viability, T/C [33]: 94.8% | viability, T/C [34]: 93.2% | viability, T/C [11]: 92.7% | viability, T/C [12]: 92.5% | viability, T/C [13]: 104% | viability, T/C [14]: 109% | viability, T/C [35]: 91.4% | viability, T/C [36]: 90.8% | viability, T/C [15]: 84.2% | viability, T/C [16]: 92% | viability, T/C [17]: 96.2% | viability, T/C [18]: 106% | viability, T/C [37]: 85.6% | viability, T/C [38]: 76.9% | viability, T/C [19]: 80.3% | viability, T/C [20]: 78% | viability, T/C [21]: 88.9% | viability, T/C [22]: 106% | viability, T/C [39]: 74.5% | viability, T/C [40]: 75.5% | viability, T/C [23]: 76.2% | viability, T/C [24]: 75.4% | viability, T/C [25]: 81.5% | viability, T/C [26]: 99.4% | viability, T/C [41]: 72.5% | viability, T/C [42]: 71.8% | viability, T/C [27]: 71.8% | viability, T/C [28]: 74.4% | viability, T/C [29]: 88.8% | viability, T/C [30]: 103%
